Earlier results, collected in article PMC8344021, “Discovery of Small Molecule Bak Activator for Lung Cancer Therapy” (Theranostics, 2021).

Assays:
SCLC = system: SCLC; set-up: method as in PMID 21282543, PMID 22496272; conditions: single-agent, SCLC patients; ref [16], [17]; cited from earlier work
[1] = system: chronic lymphocytic leukemia (CLL); set-up: method as in PMID 29562156, PMID 31205643; conditions: venetoclax monotherapy or venetoclax/rituximab combination; ref [11], [12]; cited from earlier work

| SMILES | clinical efficacy (SCLC) | proportion of patients who develop venetoclax failure [1] |
| --- | --- | --- |
| CC1(C)CCC(c2ccc(Cl)cc2)=C(CN2CCN(c3ccc(C(=O)NS(=O)(=O)c4ccc(N[C@H](CCN5CCOCC5)CSc5ccccc5)c(S(=O)(=O)C(F)(F)F)c4)cc3)CC2)C1 [navitoclax] | limited efficacy | – |
| CC1(C)CCC(CN2CCN(c3ccc(C(=O)NS(=O)(=O)c4ccc(NCC5CCOCC5)c([N+](=O)[O-])c4)c(Oc4cnc5[nH]ccc5c4)c3)CC2)=C(c2ccc(Cl)cc2)C1 [venetoclax] | – | 15-25% |
